Laboratory results as given in PMC7088078 (Journal of Inorganic and Organometallic Polymers and …, 2008).
Counter-ions that a name gives are not always drawn.

Columns and labels:
[1] = test system: BS-C-1; assay: Cytotoxicity assay; format: cell-based, African green monkey; conditions: trypan blue dye exclusion after 7 days, ± one SD
[2] = test system: Vaccinia WR; format: cell-based, Vaccinia virus, strain WR
[3] = test system: L929; assay: Cytotoxicity assay; format: cell-based, mouse; conditions: trypan blue dye exclusion after 7 days, ± one SD
[4] = test system: HSV-1; assay: Plaque reduction assay; format: cell-based, Herpes simplex virus 1, strain GHSV-UL46; conditions: HSV-1 in Vero cells; ± one SD
[5] = test system: Vero; assay: Cytotoxicity assay; format: cell-based, African green monkey; conditions: trypan blue dye exclusion after 7 days, ± one SD
[6] = test system: Reovirus ST3; assay: Plaque reduction assay; format: cell-based, reovirus serotype 3 (ST3) strain Dearing; conditions: Reovirus ST3 in L929 cells, ± one SD
[7] = test system: 143; assay: Cytotoxicity assay; format: cell-based, human; conditions: trypan blue dye exclusion after 7 days, ± one SD
[8] = test system: Vero; assay: Chemotherapeutic activity; conditions: after 7 days, ± one SD
[9] = test system: 143; assay: Chemotherapeutic activity; conditions: after 7 days, ± one SD
[10] = test system: L929, 143, Vero, BS-C-1 cell lines; assay: Cell inhibition as a function of drug concentration; conditions: Fig. 1; cell line not specified
[11] = test system: L929; assay: Chemotherapeutic activity; conditions: after 7 days, ± one SD
[12] = test system: VZV; format: cell-based, Varicella Zoster virus, strain Ellen; conditions: VZV in BS-C-1 cells; ± one SD
[13] = test system: BS-C-1; assay: Chemotherapeutic activity; conditions: after 7 days, ± one SD
[14] = test system: reovirus, vaccinia, HSV-1, VZV; format: cell-based
[15] = test system: HSV-1; conditions: cited from earlier work
[16] = test system: ssRNA viruses; conditions: in words; cited from earlier work
[17] = test system: vaccinia; conditions: cited from earlier work

| SMILES | MCC, minimum cytotoxicity concentration that causes a reduction in cell viability >10% [1] [µg/mL] | MIC, minimum inhibitory concentration required to reduce virus plaque number by 50% [2] [µg/mL] | MCC, minimum cytotoxicity concentration that causes a reduction in cell viability >10% [3] [µg/mL] | MIC, minimum inhibitory concentration required to reduce virus plaque number by 50% [4] | MCC, minimum cytotoxicity concentration that causes a reduction in cell viability >10% [5] [µg/mL] | MIC, minimum inhibitory concentration required to reduce virus plaque number by 50% [6] [µg/mL] | MIC, minimum inhibitory concentration required to reduce virus plaque number by 50% ([6]; listed as acyclovir) [µg/mL] | MCC, minimum cytotoxicity concentration that causes a reduction in cell viability >10% [7] [µg/mL] | GI50 (50% reduction in cell growth) [8] [µg/mL] | GI50 (50% reduction in cell growth) [9] [µg/mL] | GI50 [10] | GI50 (50% reduction in cell growth) [11] [µg/mL] | MIC, minimum inhibitory concentration required to reduce virus plaque number by 50% [12] [µg/mL] | GI50 (50% reduction in cell growth) [13] [µg/mL] | inhibition of the tested viruses [14] | concentration shown to inhibit HSV-1 [15] [µg/mL] | antiviral activity against ssRNA viruses [16] | concentration shown to inhibit vaccinia [17] [µg/mL] |
| --- | --- | --- | --- | --- | --- | --- | --- | --- | --- | --- | --- | --- | --- | --- | --- | --- | --- | --- |
| Nc1nc2c(ncn2COCCO)c(=O)[nH]1 [Acyclovir] | 440 ± 39.0 | >200 | 500 ± 42.0 | about 0.08 μg/mL | 400 ± 42.0 | >250 | > 250 | 425 ± 32.0 |  |  |  |  |  |  |  |  |  |  |
| N.N.[Cl][Pt][Cl] [Cisplatin] |  | >25 |  | >25 µg/mL |  | >25 |  |  | 50 ± 4.0 | 50 ± 4.0 | about 50 μg/mL | 75 ± 6.0 | >25 | 50 ± 3.0 |  |  |  |  |
| [Cl][Pt-2]([Cl])([Cl])[Cl].[K+].[K+] [Compound K2PtCl4, potassium tetrachloroplatinate(II)] | 75 ± 6.0 | >75 | 100 ± 9.0 | >100 µg/mL | 100 ± 9.0 | >100 |  | 75 ± 6.0 | 200 ± 16.0 | 175 ± 12.0 |  | 200 ± 20.0 | >75 | 175 ± 20.0 | little inhibition |  |  |  |
| CCN(CC)CCOc1ccc2c(c1)C(=O)c1cc(OCCN(CC)CC)ccc1-2 [Tilorone hydrochloride, 2,7-bis[2-(9-diethylamino)ethoxy]-9H-fluorene-9-one] |  |  |  |  |  |  |  |  |  |  |  |  |  |  |  | 10 | no antiviral activity | 10 |
